Test results published in ChEMBL document CHEMBL1201862, “PubChem BioAssay data set” (2004).
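Exposure lasted 48 hours, with cells grown in 96-well plates and compounds tested at five concentrations. GI50 is the concentration that inhibits growth by half.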 Calls of active or inactive are those of the source. Cut-off read from the data, not from the text of the source: active = GI50 up to about 1.1 µM and inactive = higher.

How the values were obtained:
Test in all cases: NCI-60 cell line screen, 48 h
786-0 = tested on: 786-0
ACHN = tested on: ACHN
EKVX = tested on: EKVX
HCT-116 = tested on: HCT-116
HL-60 = tested on: HL-60
HOP-62 = tested on: HOP-62
Hs-578T = tested on: Hs-578T
KM12 = tested on: KM12
M14 = tested on: M14
MCF7 = tested on: MCF7
MDA-MB-231 = tested on: MDA-MB-231
NCI-H460 = tested on: NCI-H460
SF-295 = tested on: SF-295
SK-MEL-2 = tested on: SK-MEL-2
SNB-19 = tested on: SNB-19
SR = tested on: SR
U-251 = tested on: U-251
UACC-62 = tested on: UACC-62
OVCAR-3 = tested on: OVCAR-3
BT-549 = tested on: BT-549

Row | Structure (SMILES) | GI50 (786-0) | GI50 (ACHN) | GI50 (EKVX) | GI50 (HCT-116) | GI50 (HL-60) | GI50 (HOP-62) | GI50 (Hs-578T) | GI50 (KM12) | GI50 (M14) | GI50 (MCF7) | GI50 (MDA-MB-231) | GI50 (NCI-H460) | GI50 (SF-295) | GI50 (SK-MEL-2) | GI50 (SNB-19) | GI50 (SR) | GI50 (U-251) | GI50 (UACC-62) | GI50 (OVCAR-3) | GI50 (BT-549)
1 | CC#CCCN(CC#N)Cc1ccccc1 | > 100 µM (inactive) | 21.3 µM (inactive) | > 100 µM (inactive) | > 100 µM (inactive) | > 100 µM (inactive) | > 100 µM (inactive) | > 100 µM (inactive) | > 100 µM (inactive) | > 100 µM (inactive) | 20.1 µM (inactive) | > 100 µM (inactive) | > 100 µM (inactive) | > 100 µM (inactive) | > 100 µM (inactive) | > 100 µM (inactive) | > 100 µM (inactive) | > 100 µM (inactive) | 18.1 µM (inactive) | – | –
2 | CCOC(=O)c1ccc(Nc2c3c(nc4ccccc24)CCCC3)cc1 | 29.2 µM (inactive) | > 91.4 µM (inactive) | > 54.2 µM (inactive) | > 34.3 µM (inactive) | 3.22 µM (inactive) | 10.6 µM (inactive) | 27.5 µM (inactive) | 3.54 µM (inactive) | > 34.2 µM (inactive) | 12 µM (inactive) | 26.6 µM (inactive) | 43.2 µM (inactive) | 17.1 µM (inactive) | > 86.9 µM (inactive) | 41 µM (inactive) | 25.4 µM (inactive) | 22.9 µM (inactive) | 30.3 µM (inactive) | > 100 µM (inactive) | –
3 | CNC(=O)N1CN(c2ccccc2)C2(CCN(CCCC(=O)c3ccc(F)cc3)CC2)C1=O | 26.1 µM (inactive) | 11.1 µM (inactive) | 12.8 µM (inactive) | 7.59 µM (inactive) | 15.2 µM (inactive) | 8.22 µM (inactive) | – | 20.9 µM (inactive) | 16.5 µM (inactive) | 3.62 µM (inactive) | 25.2 µM (inactive) | – | 16.8 µM (inactive) | – | 17.3 µM (inactive) | 21.9 µM (inactive) | 21.5 µM (inactive) | 18.7 µM (inactive) | 18.4 µM (inactive) | –
4 | Cc1c(Cl)cccc1NC(=O)C(=O)C1C(=O)NC(=O)NC1=O | > 100 µM (inactive) | > 100 µM (inactive) | > 100 µM (inactive) | > 100 µM (inactive) | > 100 µM (inactive) | > 100 µM (inactive) | – | > 100 µM (inactive) | > 100 µM (inactive) | – | – | > 100 µM (inactive) | > 100 µM (inactive) | > 100 µM (inactive) | > 100 µM (inactive) | > 100 µM (inactive) | > 100 µM (inactive) | > 100 µM (inactive) | > 100 µM (inactive) | –
5 | CCOc1ccc(NC(=O)C(=O)NO)cc1 | > 100 µM (inactive) | > 100 µM (inactive) | > 100 µM (inactive) | > 100 µM (inactive) | > 100 µM (inactive) | > 100 µM (inactive) | – | > 100 µM (inactive) | > 100 µM (inactive) | – | – | > 100 µM (inactive) | > 100 µM (inactive) | > 100 µM (inactive) | > 100 µM (inactive) | 55.3 µM (inactive) | > 100 µM (inactive) | > 100 µM (inactive) | > 100 µM (inactive) | –
6 | COCCNC(=O)C1C(=O)N(CCOC)C(=O)/C1=N/N (configuration not stated) | > 100 µM (inactive) | > 100 µM (inactive) | > 100 µM (inactive) | > 100 µM (inactive) | > 100 µM (inactive) | – | – | > 100 µM (inactive) | > 100 µM (inactive) | – | – | – | > 100 µM (inactive) | > 100 µM (inactive) | > 100 µM (inactive) | > 100 µM (inactive) | > 100 µM (inactive) | > 100 µM (inactive) | > 100 µM (inactive) | –
7 | Clc1ccc(C2=NNC(c3cccc(Cl)c3)C2)cc1 (configuration not stated) | 28.3 µM (inactive) | – | 23.4 µM (inactive) | 26.7 µM (inactive) | 34.5 µM (inactive) | 32.2 µM (inactive) | 28.8 µM (inactive) | 35.9 µM (inactive) | 53.7 µM (inactive) | 17.4 µM (inactive) | 18.7 µM (inactive) | 28.5 µM (inactive) | 29.1 µM (inactive) | 0.362 µM (active) | 34.4 µM (inactive) | 41.9 µM (inactive) | 16.5 µM (inactive) | 28.8 µM (inactive) | 28.6 µM (inactive) | –
8 | COc1ccc2c(c1)CC[C@@H]1[C@@H]2CC[C@]2(C)C(=O)/C(=C/c3ccc(N(C)C)cc3)C[C@@H]12 | 29.2 µM (inactive) | 48.9 µM (inactive) | 63.5 µM (inactive) | 44 µM (inactive) | > 100 µM (inactive) | 20.8 µM (inactive) | – | 84.3 µM (inactive) | 61.2 µM (inactive) | – | 55.8 µM (inactive) | 39.8 µM (inactive) | 40.2 µM (inactive) | 24.9 µM (inactive) | 35.6 µM (inactive) | – | 46.1 µM (inactive) | 32.6 µM (inactive) | 23 µM (inactive) | 29.1 µM (inactive)
9 | CN1CCC(CN2c3ccccc3Sc3ccccc32)CC1 | 14.3 µM (inactive) | 16 µM (inactive) | 14.4 µM (inactive) | 12.6 µM (inactive) | 13 µM (inactive) | 18 µM (inactive) | – | 16 µM (inactive) | 13 µM (inactive) | – | – | 14.7 µM (inactive) | 15.8 µM (inactive) | 17.1 µM (inactive) | 15.7 µM (inactive) | 14.1 µM (inactive) | 15.7 µM (inactive) | 14.8 µM (inactive) | 15.3 µM (inactive) | –
10 | Nc1nc(N)c2ncn(-c3ccc(Cl)cc3)c2n1 | 70.3 µM (inactive) | 27.7 µM (inactive) | 10.1 µM (inactive) | 37.9 µM (inactive) | 82 µM (inactive) | 74.3 µM (inactive) | – | 26.8 µM (inactive) | 39 µM (inactive) | 41.3 µM (inactive) | 63.2 µM (inactive) | – | 33.7 µM (inactive) | 39.6 µM (inactive) | – | – | 49.1 µM (inactive) | 29.7 µM (inactive) | 40.6 µM (inactive) | –
11 | CCC12CN(C(=O)OC)C3C(Br)C1CCC(=O)C32 (configuration not stated) | > 100 µM (inactive) | > 100 µM (inactive) | > 100 µM (inactive) | – | > 100 µM (inactive) | > 100 µM (inactive) | > 100 µM (inactive) | > 100 µM (inactive) | > 100 µM (inactive) | > 100 µM (inactive) | > 100 µM (inactive) | > 100 µM (inactive) | > 100 µM (inactive) | > 100 µM (inactive) | > 100 µM (inactive) | > 100 µM (inactive) | > 100 µM (inactive) | > 100 µM (inactive) | > 100 µM (inactive) | –
12 | Cc1ccc(C2=C(C#N)C(=O)N3CCN=C3S2)cc1 | > 100 µM (inactive) | 45.1 µM (inactive) | > 100 µM (inactive) | > 100 µM (inactive) | – | – | – | > 100 µM (inactive) | > 100 µM (inactive) | > 100 µM (inactive) | > 100 µM (inactive) | > 100 µM (inactive) | > 100 µM (inactive) | > 100 µM (inactive) | 70.3 µM (inactive) | > 100 µM (inactive) | > 100 µM (inactive) | > 100 µM (inactive) | > 100 µM (inactive) | > 100 µM (inactive)
13 | O=c1[nH]c(=O)n(C2OC(COP(=O)(O)OP(=O)(O)O)C(O)C2O)cc1F (configuration not stated) | 0.239 µM (active) | 0.178 µM (active) | 2.44 µM (inactive) | 0.0643 µM (active) | 7.43 µM (inactive) | 2.24 µM (inactive) | – | 2.28 µM (inactive) | 1.55 µM (inactive) | – | – | 0.0453 µM (active) | 0.822 µM (active) | 6.79 µM (inactive) | 0.743 µM (active) | 1.34 µM (inactive) | 0.391 µM (active) | 2.7 µM (inactive) | 6.34 µM (inactive) | –
14 | COC(=O)[C@H](Cc1c[nH]c2ccccc12)NP(=O)(OCCC#N)OCC1OC(n2cc(C)c(=O)[nH]c2=O)CC1N=[N+]=[N-] (some centres not stated) | > 100 µM (inactive) | 50.8 µM (inactive) | > 100 µM (inactive) | > 100 µM (inactive) | > 100 µM (inactive) | > 100 µM (inactive) | – | > 100 µM (inactive) | > 100 µM (inactive) | > 100 µM (inactive) | > 100 µM (inactive) | > 100 µM (inactive) | > 100 µM (inactive) | > 100 µM (inactive) | > 100 µM (inactive) | – | > 100 µM (inactive) | > 100 µM (inactive) | > 100 µM (inactive) | > 100 µM (inactive)
15 | O=C(O)c1cc(O)c2c(c1)Cc1cccc(O)c1C2=O | 30.5 µM (inactive) | 15.4 µM (inactive) | 22.1 µM (inactive) | 23.9 µM (inactive) | 21.1 µM (inactive) | 19.1 µM (inactive) | – | – | 23.4 µM (inactive) | 30.1 µM (inactive) | 21.5 µM (inactive) | 23.3 µM (inactive) | 20.3 µM (inactive) | – | 28.6 µM (inactive) | 26.1 µM (inactive) | 17.6 µM (inactive) | 19.1 µM (inactive) | 17.9 µM (inactive) | 30.5 µM (inactive)
16 | CC(=O)OC1CCCn2c1nc1c2C(=O)C(C)=C(N2CC2)C1=O (configuration not stated) | 0.222 µM (active) | 0.254 µM (active) | 0.721 µM (active) | 0.409 µM (active) | 2.41 µM (inactive) | 0.216 µM (active) | – | 0.403 µM (active) | 0.163 µM (active) | – | – | 0.0798 µM (active) | 0.16 µM (active) | 0.277 µM (active) | 0.338 µM (active) | 18.1 µM (inactive) | 0.201 µM (active) | 0.301 µM (active) | 0.329 µM (active) | –
